Earlier results, collected in patent US20230404964A1, “COMBINATION FOR REDUCING OXIDATIVE STRESS IN THE BODY AND MAINTAINING LIVER FUNCTIONS” (priority 2020, published 2023).
Values joined by “and” are separate entries in the source; they are usually repeats but may differ in a detail not shown here. Identical values can stand only once.

Test system: HUVEC cells
Details: pretreatment with DHM 37.5-300 μmol, hydrogen peroxide

SMILES: O=C1c2c(O)cc(O)cc2O[C@H](c2cc(O)c(O)c(O)c2)[C@H]1O [DHM, Dihydromyricetin]
- decrease in apoptosis (depending on the dose): 14.83% and 11.1% and 9.12%
- MDA concentration (in words): decrease in the MDA concentration
- production of reactive oxygen species (in words): significant decrease in the production of reactive oxygen species
